Measured values reported in ChEMBL document CHEMBL1201862, “PubChem BioAssay data set” (2004).
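Exposure lasted 48 hours, with cells grown in 96-well plates and compounds tested at five concentrations. GI50 marks 50% less growth.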 Activity calls are given as the source filed them. No stated cut-off is given here; in the data, active = GI50 up to about 1.1 µM and inactive = higher.

Experiments:
Assay in all cases: NCI anticancer screen, dose series, 48 h
RPMI-8226 = test system: RPMI-8226
K562 = test system: K562
BT-549 = test system: BT-549
SN12C = test system: SN12C
IGROV-1 = test system: IGROV-1
HCT-116 = test system: HCT-116
COLO 205 = test system: COLO 205
UACC-257 = test system: UACC-257
OVCAR-5 = test system: OVCAR-5
HT-29 = test system: HT-29
A549 = test system: A549
HOP-92 = test system: HOP-92
M14 = test system: M14
EKVX = test system: EKVX
UACC-62 = test system: UACC-62
PC-3 = test system: PC-3
Hs-578T = test system: Hs-578T
NCI-H522 = test system: NCI-H522
KM12 = test system: KM12
TK-10 = test system: TK-10
SK-MEL-2 = test system: SK-MEL-2
SK-OV-3 = test system: SK-OV-3
CAKI-1 = test system: CAKI-1
SF-268 = test system: SF-268
SR = test system: SR
CCRF-CEM = test system: CCRF-CEM
SNB-19 = test system: SNB-19
MDA-N = test system: MDA-N
SF-539 = test system: SF-539
ACHN = test system: ACHN
SNB-75 = test system: SNB-75
DU-145 = test system: DU-145
NCI-H460 = test system: NCI-H460
HL-60 = test system: HL-60
MOLT-4 = test system: MOLT-4
HCT-15 = test system: HCT-15
786-0 = test system: 786-0
UO-31 = test system: UO-31
U-251 = test system: U-251
SK-MEL-5 = test system: SK-MEL-5
MCF7 = test system: MCF7
RXF 393 = test system: RXF 393
SW-620 = test system: SW-620
OVCAR-8 = test system: OVCAR-8
NCI-H226 = test system: NCI-H226
NCI-H23 = test system: NCI-H23
MDA-MB-231 = test system: MDA-MB-231
T47D = test system: T47D
SF-295 = test system: SF-295
Malme-3M = test system: Malme-3M
NCI/ADR-RES = test system: NCI/ADR-RES
MDA-MB-435 = test system: MDA-MB-435
OVCAR-4 = test system: OVCAR-4
OVCAR-3 = test system: OVCAR-3
LOX IMVI = test system: LOX IMVI
HOP-62 = test system: HOP-62
HCC 2998 = test system: HCC 2998
SK-MEL-28 = test system: SK-MEL-28
A498 = test system: A498

COC(CNC(=O)C(C)NC(=O)/C=C/c1ccccc1)OC (centres undefined)
GI50 (RPMI-8226): > 100 µM (inactive)
GI50 (K562): > 100 µM (inactive)
GI50 (BT-549): > 100 µM (inactive)
GI50 (SN12C): > 100 µM (inactive)
GI50 (IGROV-1): > 100 µM (inactive)
GI50 (HCT-116): > 100 µM (inactive)
GI50 (COLO 205): > 100 µM (inactive)
GI50 (UACC-257): > 100 µM (inactive)
GI50 (OVCAR-5): > 100 µM (inactive)
GI50 (HT-29): > 100 µM (inactive)
GI50 (A549): > 100 µM (inactive)
GI50 (HOP-92): > 100 µM (inactive)
GI50 (M14): > 100 µM (inactive)
GI50 (EKVX): > 100 µM (inactive)
GI50 (UACC-62): > 100 µM (inactive)
GI50 (PC-3): > 100 µM (inactive)
GI50 (Hs-578T): > 100 µM (inactive)
GI50 (NCI-H522): 62.1 µM (inactive)
GI50 (KM12): > 100 µM (inactive)
GI50 (TK-10): > 100 µM (inactive)
GI50 (SK-MEL-2): > 100 µM (inactive)
GI50 (SK-OV-3): > 100 µM (inactive)
GI50 (CAKI-1): > 100 µM (inactive)
GI50 (SF-268): > 100 µM (inactive)
GI50 (SR): > 100 µM (inactive)
GI50 (CCRF-CEM): > 100 µM (inactive)
GI50 (SNB-19): > 100 µM (inactive)
GI50 (MDA-N): > 100 µM (inactive)
GI50 (SF-539): > 100 µM (inactive)
GI50 (ACHN): > 100 µM (inactive)
GI50 (SNB-75): > 100 µM (inactive)
GI50 (DU-145): > 100 µM (inactive)
GI50 (NCI-H460): > 100 µM (inactive)
GI50 (HL-60): > 100 µM (inactive)
GI50 (MOLT-4): > 100 µM (inactive)
GI50 (HCT-15): > 100 µM
GI50 (786-0): > 100 µM (inactive)
GI50 (UO-31): > 100 µM (inactive)
GI50 (U-251): > 100 µM (inactive)
GI50 (SK-MEL-5): > 100 µM (inactive)
GI50 (MCF7): > 100 µM (inactive)
GI50 (RXF 393): > 100 µM (inactive)
GI50 (SW-620): > 100 µM (inactive)
GI50 (OVCAR-8): > 100 µM (inactive)
GI50 (NCI-H226): > 100 µM (inactive)
GI50 (NCI-H23): > 100 µM (inactive)
GI50 (MDA-MB-231): > 100 µM (inactive)
GI50 (T47D): > 100 µM (inactive)
GI50 (SF-295): > 100 µM (inactive)
GI50 (Malme-3M): > 100 µM (inactive)
GI50 (NCI/ADR-RES): > 100 µM (inactive)
GI50 (MDA-MB-435): > 100 µM (inactive)

c1ccc(C2SCc3nc4cc5ccccc5cc4n32)cc1 (centres undefined)
GI50 (OVCAR-4): 89.3 µM (inactive)
GI50 (RPMI-8226): > 100 µM (inactive)
GI50 (K562): > 100 µM (inactive)
GI50 (BT-549): > 100 µM (inactive)
GI50 (SN12C): > 100 µM (inactive)
GI50 (IGROV-1): > 100 µM (inactive)
GI50 (HCT-116): > 100 µM (inactive)
GI50 (OVCAR-3): > 100 µM (inactive)
GI50 (COLO 205): > 100 µM (inactive)
GI50 (UACC-257): > 100 µM (inactive)
GI50 (OVCAR-5): > 100 µM (inactive)
GI50 (HT-29): > 100 µM (inactive)
GI50 (A549): > 100 µM (inactive)
GI50 (HOP-92): 57.3 µM (inactive)
GI50 (M14): > 100 µM (inactive)
GI50 (EKVX): > 100 µM (inactive)
GI50 (UACC-62): > 100 µM (inactive)
GI50 (PC-3): > 100 µM (inactive)
GI50 (LOX IMVI): > 100 µM (inactive)
GI50 (Hs-578T): 60.3 µM (inactive)
GI50 (KM12): > 100 µM (inactive)
GI50 (TK-10): > 100 µM (inactive)
GI50 (SK-MEL-2): > 100 µM (inactive)
GI50 (SK-OV-3): > 100 µM (inactive)
GI50 (CAKI-1): > 100 µM (inactive)
GI50 (SF-268): > 100 µM (inactive)
GI50 (SR): > 100 µM (inactive)
GI50 (CCRF-CEM): > 100 µM (inactive)
GI50 (SNB-19): > 100 µM (inactive)
GI50 (MDA-N): > 100 µM (inactive)
GI50 (HOP-62): > 100 µM (inactive)
GI50 (SF-539): > 100 µM (inactive)
GI50 (ACHN): > 100 µM (inactive)
GI50 (SNB-75): 70.1 µM (inactive)
GI50 (DU-145): > 100 µM (inactive)
GI50 (MOLT-4): > 100 µM (inactive)
GI50 (HCT-15): > 100 µM
GI50 (786-0): 60.4 µM (inactive)
GI50 (UO-31): > 100 µM (inactive)
GI50 (U-251): > 100 µM (inactive)
GI50 (HCC 2998): > 100 µM (inactive)
GI50 (MCF7): > 100 µM (inactive)
GI50 (RXF 393): > 100 µM (inactive)
GI50 (SW-620): > 100 µM (inactive)
GI50 (OVCAR-8): > 100 µM (inactive)
GI50 (NCI-H226): > 100 µM (inactive)
GI50 (NCI-H23): > 100 µM (inactive)
GI50 (MDA-MB-231): > 100 µM (inactive)
GI50 (SK-MEL-28): > 100 µM (inactive)
GI50 (T47D): > 100 µM (inactive)
GI50 (SF-295): 85.5 µM (inactive)
GI50 (Malme-3M): > 100 µM (inactive)
GI50 (NCI/ADR-RES): > 100 µM (inactive)
GI50 (MDA-MB-435): > 100 µM (inactive)

O=C(O)c1ccc(Nc2ccnc3cc(Cl)ccc23)cc1O
GI50 (OVCAR-4): > 100 µM (inactive)
GI50 (RPMI-8226): > 100 µM (inactive)
GI50 (K562): > 100 µM (inactive)
GI50 (BT-549): > 100 µM (inactive)
GI50 (SN12C): > 100 µM (inactive)
GI50 (A498): > 100 µM (inactive)
GI50 (IGROV-1): > 100 µM (inactive)
GI50 (HCT-116): > 100 µM (inactive)
GI50 (OVCAR-3): > 100 µM (inactive)
GI50 (COLO 205): > 100 µM (inactive)
GI50 (UACC-257): > 100 µM (inactive)
GI50 (OVCAR-5): > 100 µM (inactive)
GI50 (HT-29): > 100 µM (inactive)
GI50 (A549): > 100 µM (inactive)
GI50 (HOP-92): > 100 µM (inactive)
GI50 (M14): > 100 µM (inactive)
GI50 (EKVX): > 100 µM (inactive)
GI50 (UACC-62): > 100 µM (inactive)
GI50 (PC-3): > 100 µM (inactive)
GI50 (LOX IMVI): > 100 µM (inactive)
GI50 (Hs-578T): > 100 µM (inactive)
GI50 (NCI-H522): > 100 µM (inactive)
GI50 (KM12): > 100 µM (inactive)
GI50 (TK-10): 61.4 µM (inactive)
GI50 (SK-MEL-2): > 100 µM (inactive)
GI50 (SK-OV-3): > 100 µM (inactive)
GI50 (CAKI-1): > 100 µM (inactive)
GI50 (SF-268): > 100 µM (inactive)
GI50 (CCRF-CEM): > 100 µM (inactive)
GI50 (SNB-19): > 100 µM (inactive)
GI50 (MDA-N): > 100 µM (inactive)
GI50 (HOP-62): 45.7 µM (inactive)
GI50 (SF-539): 11.1 µM (inactive)
GI50 (ACHN): > 100 µM (inactive)
GI50 (SNB-75): > 100 µM (inactive)
GI50 (DU-145): > 100 µM (inactive)
GI50 (NCI-H460): > 100 µM (inactive)
GI50 (HL-60): > 100 µM (inactive)
GI50 (MOLT-4): > 100 µM (inactive)
GI50 (HCT-15): > 100 µM
GI50 (786-0): > 100 µM (inactive)
GI50 (UO-31): > 100 µM (inactive)
GI50 (U-251): 95.1 µM (inactive)
GI50 (HCC 2998): 39.6 µM (inactive)
GI50 (SK-MEL-5): > 100 µM (inactive)
GI50 (MCF7): > 100 µM (inactive)
GI50 (RXF 393): > 100 µM (inactive)
GI50 (SW-620): > 100 µM (inactive)
GI50 (OVCAR-8): > 100 µM (inactive)
GI50 (NCI-H226): > 100 µM (inactive)
GI50 (NCI-H23): > 100 µM (inactive)
GI50 (MDA-MB-231): > 100 µM (inactive)
GI50 (SK-MEL-28): > 100 µM (inactive)
GI50 (T47D): > 100 µM (inactive)
GI50 (SF-295): > 100 µM (inactive)
GI50 (Malme-3M): > 100 µM (inactive)
GI50 (NCI/ADR-RES): > 100 µM (inactive)
GI50 (MDA-MB-435): > 100 µM (inactive)
